Row | Compound | melting point
1 | Nc1nc2cccnc2c2c1nc(O)n2Cc1ccccc1 [Example 2, 4-Amino-1-benzyl-1H-imidazo[4,5-c][1,5]naphthyridin-2-ol] | > 250 °C
2 | CCOc1nc2c(N)nc3cccnc3c2n1CC1CCOCC1 [Example 3, 2-Ethoxy-1-(tetrahydro-2H-pyran-4-ylmethyl)-1H-imidazo[4,5-c][1,5]naphthyridin-4-amine] | 197 to 200 °C
3 | Nc1nc2cccnc2c2c1nc(O)n2CC1CCOCC1 [Example 4, 4-Amino-1-(tetrahydro-2H-pyran-4-ylmethyl)-1H-imidazo[4,5-c][1,5]naphthyridin-2-ol] | 250 to 260 °C
4 | CCOc1nc2c(N)nc3cccnc3c2n1[C@@H](C)c1ccccc1 [Example 5, 2-Ethoxy-1-[(1S)-1-phenylethyl]-1H-imidazo[4,5-c][1,5]naphthyridin-4-amine] | 187 to 190 °C
5 | C[C@@H](c1ccccc1)n1c(O)nc2c(N)nc3cccnc3c21 [Example 6, 4-amino-1-[(1S)-1-phenylethyl]-1H-imidazo[4,5-c][1,5]naphthyridin-2-ol] | 241 to 243 °C

From US8329721B2, “Hydroxy and alkoxy substituted 1H-imidazonaphthyridines and methods” (3M Innovative Properties Company, priority 2006, dated 2012)
